Reference: patent publication US12233060B2, “Inhibitors of Ataxia-Telangiectasia Mutated and Rad3-related protein kinase (ATR) for use in methods of treating cancer” (THE INSTITUTE OF CANCER RESEARCH: ROYAL CANCER HOSPITAL, priority 2016, dated 2025)

Legend:
HCC1143 cells = assay: 384 well plate cell survival after ARID1A siRNA transfection; type: cell-based, human; conditions: ARID1A siRNA vs control, five continuous days exposure
Source text: FIG. 1. […] A. Structure of VE-821 and schematic describing workflow for parallel VE-821 chemosensitisation screens in MCF12A and HCC1143 cells. B. Scatter plots of VE-821 Drug Effect (DE) Z-scores from all 1280 siRNAs used in the in the chemosensitisation screens. The DE Z-score threshold of −2 (red line) was used for defining candidate synthetic lethal interactions is shown. C. Venn diagram of DE<−2 VE-821 sensitisation hits in MCF12A and HCC1143 cells. Numbers shown indicate number of sensitisation genes. Amongst the 30 genes with DE Z-scores <−2 in both cell lines, seven well-established tumour suppressor genes were identified. D. Bar charts illustrating DE Z-scores for control, non-targeting, siRNAs (siALLSTAR, siCON1, siCON2) and ARID1A siRNAs in the chemosensitisation screens. Values shown are median from triplicate screens and error bars represent SD. […]
A siRNA library was purchased from Dharmacon. […] RNAi screening conditions were optimised and raw CellTitre-Glo (Promega) luminescent viability readings were generated as previously described21. […]
(§1) Short-term survival assays were performed in 384-well plates. […] Drug was added 24 h after seeding and cells were continuously exposed to the drug for five days, after which cell viability was estimated using CellTitre-Glo luminescence (Promega). […] Colonies were counted manually. […]

[1] = test system: Arid1a+/+ and Arid1a−/− mouse embryonic stem (ES) cells; assay: Clonogenic survival of mouse Arid1a isogenic ES cells; type: cell-based; conditions: p<0.001 ANOVA
Experimental: FIG. 2. In vitro ARID1A/ATR synthetic lethality. A. Chemical structure of VX-970. B. Western blot of ARID1A in human ARID1A isogenic HCT116 cells. C. Image of colonies in 6 well-plate clonogenic assay. HCT116 ARID1A isogenic (^+/+ and ^−/−) cell lines were exposed to increasing concentrations of the VE-821 (0, 0.1, 1 uM) and VX-970 (0, 0.01, 0.05 uM) for 14 days. D and E. Dose response clonogenic survival curve of HCT116 ARID1A isogenic (^+/+ and ^−/−) cell lines exposed to increasing concentrations of the VE-821 and VX-970 for 14 days. Error bars represent SD from triplicate experiments, ANOVA p-value of <0.0001. F. Area under curve (AUC) box whisker comparison plot for human tumor cell lines exposed to VX-970 for five days. ARID1A wild type tumor cell lines (n=15) were compared to ARID1A mutant cell lines (n=9). Student's t-test p=0.00594. G. Dose response clonogenic survival curve of mouse Arid1a isogenic ES cell lines. Experiment was performed as per (C). Error bars represent SD from triplicate experiments, ANOVA p value of <0.0001. H. Western blot of Arid1a protein expression in mouse ES Arid1a isogenic cells. […]
as §1

[2] = test system: TOV21G (ARID1A mutant) and RMG1 (ARID1A wildtype) cells; assay: Five-day dose response in OCCC cell lines TOV21G and RMG1; type: cell-based, human; conditions: 5 days exposure
Experimental: FIG. 3. In vivo ARID1A/ATR synthetic lethality. A. Schematic of VX-970 therapy experiment in mice bearing established HCT116 ARID1A^+/+ and ARID1A^−/− xenografts. Cells were inoculated subcutaneously into nude mice and tumors allowed to establish for 10 days. Mice were then randomized to treatment regimens of either VX-970 (60 mg/kg, 4× weekly by oral gavage) or vehicle. Mice were then treated for a subsequent 40 days. Tumor volume was monitored twice weekly. B. Relative tumor volume plot from (A) showing efficacy of VX-970 and selectivity for ARID1A^−/− xenografts* p=0.024, ANOVA. C. Schematic of tumor incidence experiment in mice with non-established HCT116 ARID1A^+/+ and ARID1A^−/− xenografts. Mice were inoculated with cells as before, randomized and then treated with VX-970. […] Tumor volume was monitored twice weekly and overall tumour incidence was assessed 40 days later. […] PARP-1, cleaved PARP-1 (85 kDa fragment) and tubulin were detected by western blot. […] Caspase3/7 activity was assessed using Caspase-Glo and total cellular viability was estimated using CellTitre-Glo. Luminescence ratios for Caspase-Glo (i.e. apoptotic cells) and CellTitre-Glo (ie viable cells) was determined for each dose and normalized to DMSO treated samples. *Student's t-test, p<0.05. […]
Short-term survival assays were performed in 384-well plates. […] Colonies were counted manually. […]

ATR = ATR (Homo sapiens, UniProt Q13535); conditions: ATR catalytic inhibitor; reference 15; cited from earlier work
[3] = test system: HCT116 ARID1A isogenic (+/+ and −/−) cell lines; assay: Clonogenic survival of ARID1A isogenic cells; type: cell-based, human
Experimental: FIG. 2. In vitro ARID1A/ATR synthetic lethality. A. Chemical structure of VX-970. B. Western blot of ARID1A in human ARID1A isogenic HCT116 cells. C. Image of colonies in 6 well-plate clonogenic assay. HCT116 ARID1A isogenic (^+/+ and ^−/−) cell lines were exposed to increasing concentrations of the VE-821 (0, 0.1, 1 uM) and VX-970 (0, 0.01, 0.05 uM) for 14 days. D and E. Dose response clonogenic survival curve of HCT116 ARID1A isogenic (^+/+ and ^−/−) cell lines exposed to increasing concentrations of the VE-821 and VX-970 for 14 days. Error bars represent SD from triplicate experiments, ANOVA p-value of <0.0001. F. Area under curve (AUC) box whisker comparison plot for human tumor cell lines exposed to VX-970 for five days. ARID1A wild type tumor cell lines (n=15) were compared to ARID1A mutant cell lines (n=9). Student's t-test p=0.00594. G. Dose response clonogenic survival curve of mouse Arid1a isogenic ES cell lines. Experiment was performed as per (C). Error bars represent SD from triplicate experiments, ANOVA p value of <0.0001. H. Western blot of Arid1a protein expression in mouse ES Arid1a isogenic cells. I. Z score box whisker comparison plot for 86 human tumor cell lines transfected with ATR siRNA. Cells lines were transfected with siRNA and cell viability was estimated five days later by Cell Titre Glo reagent.
Short-term survival assays were performed in 384-well plates. Exponentially growing cells were plated at a concentration of 500 cells/well. Drug was added 24 h after seeding and cells were continuously exposed to the drug for five days, after which cell viability was estimated using CellTitre-Glo luminescence (Promega). For clonogenic assays, cells were seeded in 6-well plates (500 cells/well) and continuously exposed to drug 24!h after seeding for 14 days. Media containing fresh drug was replaced every 72 hours. Cells were fixed with 10% trichloroacetic acid and stained with sulphorhodamine B (Sigma-Aldrich, Gillingham, UK). Colonies were counted manually. All cell-based assays were performed at least in triplicate.

ATR, sequence (Q13535 whole entry): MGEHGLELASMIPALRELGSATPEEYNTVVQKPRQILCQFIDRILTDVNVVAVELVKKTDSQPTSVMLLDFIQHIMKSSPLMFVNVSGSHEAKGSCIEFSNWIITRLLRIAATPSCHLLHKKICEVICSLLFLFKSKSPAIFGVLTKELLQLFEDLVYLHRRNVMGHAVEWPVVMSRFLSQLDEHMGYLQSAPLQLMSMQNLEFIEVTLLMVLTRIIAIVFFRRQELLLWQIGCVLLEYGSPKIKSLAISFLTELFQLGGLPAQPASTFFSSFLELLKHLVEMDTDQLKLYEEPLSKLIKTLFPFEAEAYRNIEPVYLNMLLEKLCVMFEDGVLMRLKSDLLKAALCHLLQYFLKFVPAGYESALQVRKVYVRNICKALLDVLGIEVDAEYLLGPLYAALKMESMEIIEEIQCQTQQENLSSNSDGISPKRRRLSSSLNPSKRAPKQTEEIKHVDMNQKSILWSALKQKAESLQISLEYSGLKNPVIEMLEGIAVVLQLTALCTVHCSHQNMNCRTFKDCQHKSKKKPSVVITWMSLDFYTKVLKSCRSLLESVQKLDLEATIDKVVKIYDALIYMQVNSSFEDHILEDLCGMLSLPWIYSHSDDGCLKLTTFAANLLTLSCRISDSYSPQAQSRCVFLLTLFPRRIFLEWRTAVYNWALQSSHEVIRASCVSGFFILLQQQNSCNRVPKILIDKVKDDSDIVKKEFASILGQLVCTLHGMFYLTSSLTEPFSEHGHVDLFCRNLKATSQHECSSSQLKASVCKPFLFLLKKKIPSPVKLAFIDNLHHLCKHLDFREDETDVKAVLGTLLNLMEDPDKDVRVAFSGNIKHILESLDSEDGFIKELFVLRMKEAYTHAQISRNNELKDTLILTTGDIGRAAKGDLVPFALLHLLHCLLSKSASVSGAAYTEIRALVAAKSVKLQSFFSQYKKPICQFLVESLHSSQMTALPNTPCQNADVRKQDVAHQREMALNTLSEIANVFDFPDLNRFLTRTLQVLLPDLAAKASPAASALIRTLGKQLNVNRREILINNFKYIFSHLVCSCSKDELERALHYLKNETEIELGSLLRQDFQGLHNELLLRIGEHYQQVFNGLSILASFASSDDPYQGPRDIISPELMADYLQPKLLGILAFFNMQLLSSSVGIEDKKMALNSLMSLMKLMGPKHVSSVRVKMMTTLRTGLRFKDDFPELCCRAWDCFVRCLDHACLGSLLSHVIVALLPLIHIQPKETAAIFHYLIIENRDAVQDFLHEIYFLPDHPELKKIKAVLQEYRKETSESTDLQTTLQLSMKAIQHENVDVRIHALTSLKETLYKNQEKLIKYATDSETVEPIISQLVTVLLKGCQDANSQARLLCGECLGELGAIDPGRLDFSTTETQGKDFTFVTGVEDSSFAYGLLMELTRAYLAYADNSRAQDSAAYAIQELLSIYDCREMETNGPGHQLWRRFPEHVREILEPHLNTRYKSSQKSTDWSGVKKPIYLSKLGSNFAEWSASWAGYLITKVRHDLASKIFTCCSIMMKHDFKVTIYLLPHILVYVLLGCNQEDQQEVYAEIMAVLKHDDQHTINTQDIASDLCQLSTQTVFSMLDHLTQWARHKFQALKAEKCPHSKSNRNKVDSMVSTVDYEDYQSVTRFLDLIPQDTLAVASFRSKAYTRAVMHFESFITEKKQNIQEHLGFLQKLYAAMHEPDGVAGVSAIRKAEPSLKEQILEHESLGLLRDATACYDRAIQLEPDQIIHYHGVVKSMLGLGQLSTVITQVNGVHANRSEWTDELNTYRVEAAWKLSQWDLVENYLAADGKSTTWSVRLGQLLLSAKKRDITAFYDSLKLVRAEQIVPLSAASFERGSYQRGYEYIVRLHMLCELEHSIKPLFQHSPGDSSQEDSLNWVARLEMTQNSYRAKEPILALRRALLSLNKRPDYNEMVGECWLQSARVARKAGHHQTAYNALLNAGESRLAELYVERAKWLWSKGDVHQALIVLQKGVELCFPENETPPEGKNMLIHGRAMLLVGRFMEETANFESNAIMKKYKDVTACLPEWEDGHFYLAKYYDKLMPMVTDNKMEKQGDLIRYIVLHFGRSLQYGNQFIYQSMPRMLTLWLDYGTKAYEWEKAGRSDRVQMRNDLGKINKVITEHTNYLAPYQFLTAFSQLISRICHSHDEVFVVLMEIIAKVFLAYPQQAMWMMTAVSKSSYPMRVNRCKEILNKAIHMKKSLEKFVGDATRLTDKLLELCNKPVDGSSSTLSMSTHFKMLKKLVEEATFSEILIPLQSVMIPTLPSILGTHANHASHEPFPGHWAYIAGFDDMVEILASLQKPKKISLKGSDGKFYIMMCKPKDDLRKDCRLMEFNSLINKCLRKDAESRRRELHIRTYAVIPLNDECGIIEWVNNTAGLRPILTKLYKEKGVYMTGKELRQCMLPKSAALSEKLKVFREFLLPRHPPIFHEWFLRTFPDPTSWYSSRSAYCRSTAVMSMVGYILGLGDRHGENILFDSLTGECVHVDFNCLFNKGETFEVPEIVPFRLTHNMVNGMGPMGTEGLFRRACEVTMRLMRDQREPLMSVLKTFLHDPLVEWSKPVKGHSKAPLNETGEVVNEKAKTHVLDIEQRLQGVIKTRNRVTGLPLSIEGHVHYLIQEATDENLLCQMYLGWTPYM
ATR, sequence (Q8WXE1 whole entry partner): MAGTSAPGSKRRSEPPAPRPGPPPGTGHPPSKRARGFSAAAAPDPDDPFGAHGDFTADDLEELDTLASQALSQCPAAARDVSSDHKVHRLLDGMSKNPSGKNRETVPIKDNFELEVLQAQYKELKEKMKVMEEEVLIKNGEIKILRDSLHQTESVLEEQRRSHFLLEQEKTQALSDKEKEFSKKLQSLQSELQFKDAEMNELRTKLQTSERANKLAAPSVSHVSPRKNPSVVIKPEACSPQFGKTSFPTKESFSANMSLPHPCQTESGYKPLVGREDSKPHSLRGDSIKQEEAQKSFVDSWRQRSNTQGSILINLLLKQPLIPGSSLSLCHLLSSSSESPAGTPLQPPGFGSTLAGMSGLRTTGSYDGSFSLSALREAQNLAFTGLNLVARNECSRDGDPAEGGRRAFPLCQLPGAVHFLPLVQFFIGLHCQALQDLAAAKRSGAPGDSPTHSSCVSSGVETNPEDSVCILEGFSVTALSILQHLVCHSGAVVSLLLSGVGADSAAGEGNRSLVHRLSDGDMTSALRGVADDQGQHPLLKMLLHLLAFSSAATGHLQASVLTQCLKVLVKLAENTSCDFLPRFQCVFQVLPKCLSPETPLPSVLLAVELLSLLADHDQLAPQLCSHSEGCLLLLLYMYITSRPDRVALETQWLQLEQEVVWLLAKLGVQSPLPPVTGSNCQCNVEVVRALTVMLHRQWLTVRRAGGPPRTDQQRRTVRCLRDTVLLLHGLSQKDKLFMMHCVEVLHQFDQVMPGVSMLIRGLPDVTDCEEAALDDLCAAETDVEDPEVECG

CS(=O)(=O)c1ccc(-c2cnc(N)c(C(=O)Nc3ccccc3)n2)cc1 [VE-821, 3-amino-6-(4-methylsulfonylphenyl)-N-phenyl-pyrazine-2-carboxamide]
ATRi sensitivity caused by ARID1A siRNA (HCC1143 cells): significantly enhanced sensitivity to VE-821
selective targeting of Arid1a−/− ES cells in clonogenic assays [1]: selectively targeted Arid1a^−/− ES cells
sensitivity of TOV21G vs RMG1 [2]: more sensitive to both VE-821 and VX-970
Ki (ATR): 0.013 µM

CN(Cc1cnc2nc(N)nc(N)c2n1)c1ccc(C(=O)N[C@@H](CCC(=O)O)C(=O)O)cc1 [methotrexate]
ARID1A−/− selectivity [3]: neither taxol or methotrexate elicited ARID1A^−/− selectivity

CC(=O)O[C@H]1C(=O)[C@@]2(C)[C@H]([C@H](OC(=O)c3ccccc3)[C@]3(O)C[C@H](OC(=O)[C@H](O)[C@@H](NC(=O)c4ccccc4)c4ccccc4)C(C)=C1C3(C)C)[C@]1(OC(C)=O)CO[C@@H]1C[C@@H]2O [taxol]
ARID1A−/− selectivity [3]: neither taxol or methotrexate elicited ARID1A^−/− selectivity
